Measurements as given in patent US7259140B2, “Heparin-binding peptides and uses thereof” (Thomas Jefferson University, priority 2003, dated 2007).
Ends that are not written are not given here.

Tests used:
[1] = system: anti-Factor Xa Activity of Unfractionated Heparin; experiment: Anti-Factor Xa assay: neutralization of unfractionated heparin in citrate or plasma in vitro; assay type: biochemical, human; settings: for Unfractionated Heparin Neutralized: UFH 0.7 U/ml
Protocol: The ability of peptides such as (ARKKAAKA)3VLVLVLVL (SEQ ID NO:5) to neutralize the anti-Factor Xa activity of UFH and LMWH in vitro was tested using the Stachrom Heparin kit (Diagnostica Stago), a standard hematology laboratory assay used to measure the anti-Factor Xa activity of heparin. The assay was performed using the low molecular weight heparin enoxaparin sodium (Lovenox®, Aventis Pharmaceuticals, Inc.), unfractionated heparin (UFH), or the non-heparin glycosaminoglycan danaparoid sodium (Orgaran®, Organon Inc., West Orange, N.J.) in 0.32% citrate or in plasma anticoagulated with 0.32% citrate. Enoxaparin is commonly used clinically as a low molecular weight heparin (LMWH). Danaparoid is commonly used clinically as a non-heparin glycosaminoglycan anticoagulant. Currently, the only FDA approved drug to target UFH is protamine, which is not effective in vivo against LMWH or a non-heparin glycosaminoglycan such as danaparoid. Buffer and ATIII are added to form the heparin/ATIII complex, peptide is added, then Factor Xa, reporter dye substrate for Factor Xa activity, and stop solution, and the dye concentration is read at 405 nm. The absorbance of the dye increases with increasing Factor Xa activity, and thus is inversely proportional to the heparin (anti-Factor Xa activity) concentration. Peptides were tested in plasma obtained from three volunteers (A, B, and C). Platelet function inhibitors PG12 and theophylline were added to the blood immediately upon collection. […]

[2] = system: Lovenox ® Activity in Blood from Patients Treated with Lovenox ®; experiment: Neutralizing Lovenox activity in blood from patients treated with Lovenox (anti-Factor Xa assay); assay type: biochemical, human; settings: for Lovenox ® Neutralized: Peptide 12 μg/ml
Protocol: Blood was obtained from volunteers who were being treated with Lovenox® for their medical conditions after obtaining signatures on informed consent forms as approved by the Institutional Review Board. The assays to test neutralization of Lovendx® were performed as described for Table 2. A dose response from 1-60 μg/ml was evaluated as in Table 2.
The dose response pattern for the effective peptides was similar to the dose response in control plasma to which Lovenox® had been added. Each data point represents the mean and standard deviation of triplicate analyses on the same sample of blood from each patient.

[3] = Affinity coelectrophoresis (ACE) of peptide binding to radiolabeled low Mr heparin; set-up: species or system pig; settings: pH 7.0, mean and standard deviation of four assays, read-out: Kd (nM), affinity for low molecular weight heparin
From the text: Preparation of Radiolabeled Heparin. Whole heparin from pig intestinal mucosa (Sigma) was tyramine end-labeled and radiolabeled with Na^125I (Amersham, Pharmacia Biotech, Inc., Piscataway, N.J.) to an average specific activity≅1.0×10^7 CPM/μg as described (San Antonio, J. D., et al., Biochemistry, 32:4746-4755, 1993). Radiolabeled heparin was fractionated on Sephadex G-100 (Bio-Rad Laboratories, Hercules, Calif.) and the final≅12% of material to elute was retained as the low Mr material of ≦6,000 (Jordan, R., D. Beeler, and R. Rosenberg, J. Biol. Chem., 254:2902-2913, 1979; Laurent, T. C., et al., Biochem. J., 175:691-701, 1978).
Analysis of Peptide-Heparin Interactions by Affinity Coelectrophoresis (ACE). ACE was used to study interactions between peptides and low molecular weight (low Mr) heparin (WO00/45831). In ACE, trace concentrations of radiolabeled heparin are electrophoresed through agarose lanes containing peptides at various concentrations. These analyses are used to determine the dissociation constants (Kd's). The electrophoretic patterns of radiolabeled heparin are then visualized using a phosphorimager, and the dissociation constant (Kd) corresponds to the protein concentration at which the heparin is half shifted from being fully mobile at very low protein concentrations to maximally retarded at saturating protein concentrations. The lower the Kd value, the higher the affinity.
Binding of radiolabeled heparin to peptides was studied by ACE as detailed elsewhere (San Antonio, J. D., et al., Biochemistry, 32:4746-4755, 1993). […] Briefly, peptides were dissolved in 1×ACE running buffer, 50 mM sodium 3-(N-morpholino)-2-hydroxypropanesulfonate (MOPSO, Sigma)/125 mM sodium acetate, pH 7.0, and serially diluted in running buffer at 2× concentrations. Peptides were then mixed 1:1 with 2% agarose/1% CHAPS, 3-[(3-cholamidopropyl)dimethylammonio]-1-propanesulfonate, (Boehringer Mannheim, Indianapolis, Ind.), and loaded into wells of a 1% agarose gel. Radiolabeled heparin was then loaded in a slot on the anode side of the gel, and electrophoresed through the peptide-containing wells, towards the cathode. Gels were dried and PG mobility was measured with a Phosphorimager (Molecular Dynamics, Sunnyvale, Calif.) by scanning each protein lane and determining the relative radioactivity content per 88-μm pixel through the length of the lane. Retardation coefficient (R) measurements, binding isotherm curve fittings, and apparent Kd value determinations were calculated as detailed previously (Lee, M. K., and A. D. Lander, Proc. Natl. Acad. Sci. USA, 88:2768-2772, 1991; San Antonio, J. D., et al, Biochemistry, 32:4746-4755, 1993).
Retardation coefficients (R) for the migration of low Mr 1^25I-tyramine-heparin through peptides were determined from ACE gel electrophoretograms, and are plotted against peptide concentration. Smooth curves represent non-linear least-squares fits to the equation R=R∞/{1+(Kd/[peptide])^n}.

[4] = blood of Lovenox-treated Patient Number 1
[5] = blood of Lovenox-treated Patient Number 2
[6] = blood of Lovenox-treated Patient Number 3
[7] = blood of Lovenox-treated Patient Number 4
[8] = blood of Lovenox-treated Patient Number 5
[9] = blood of Lovenox-treated Patient Number 8
[10] = blood of Lovenox-treated Patient Number 9
[11] = blood of Lovenox-treated Patient Number 10
[12] = blood of Lovenox-treated Patient Number 11

Row | Sequence | Unfractionated Heparin Neutralized ([1]; 1 μg/ml Peptide, A Plasma) | Unfractionated Heparin Neutralized ([1]; 1 μg/ml Peptide, B Plasma) | Unfractionated Heparin Neutralized ([1]; 1 μg/ml Peptide, C Plasma) | Unfractionated Heparin Neutralized ([1]; 1 μg/ml Peptide, Citrate) | Unfractionated Heparin Neutralized ([1]; 6 μg/ml Peptide, A Plasma) | Unfractionated Heparin Neutralized ([1]; 6 μg/ml Peptide, B Plasma) | Unfractionated Heparin Neutralized ([1]; 6 μg/ml Peptide, C Plasma) | Unfractionated Heparin Neutralized ([1]; 6 μg/ml Peptide, Citrate) | Unfractionated Heparin Neutralized ([1]; 12 μg/ml Peptide, A Plasma) | Unfractionated Heparin Neutralized ([1]; 12 μg/ml Peptide, B Plasma) | Unfractionated Heparin Neutralized ([1]; 12 μg/ml Peptide, C Plasma) | Unfractionated Heparin Neutralized ([1]; 12 μg/ml Peptide, Citrate) | Unfractionated Heparin Neutralized ([1]; 60 μg/ml Peptide, A Plasma) | Unfractionated Heparin Neutralized ([1]; 60 μg/ml Peptide, B Plasma) | Unfractionated Heparin Neutralized ([1]; 60 μg/ml Peptide, C Plasma) | Unfractionated Heparin Neutralized ([1]; 60 μg/ml Peptide, Citrate) | Unfractionated Heparin Neutralized ([1]; 120 μg/ml Peptide, A Plasma) | Unfractionated Heparin Neutralized ([1]; 120 μg/ml Peptide, B Plasma) | Unfractionated Heparin Neutralized ([1]; 120 μg/ml Peptide, C Plasma) | Unfractionated Heparin Neutralized ([1]; 120 μg/ml Peptide, Citrate) | also measured
1 | ARKKAAKAAAAAAAAAAAAAAAAAARKKAAKA [ARKKAAKA(A16)ARKKAAKA, reference compound] | 0.080 ± 0.050 U/ml | 0.0 U/ml | 0.0 U/ml | 0.040 ± 0.017 U/ml | 0.045 ± 0.029 U/ml | 0.005 ± 0.007 U/ml | 0.008 ± 0.012 U/ml | 0.064 ± 0.020 U/ml | 0.026 ± 0.018 U/ml | 0.008 ± 0.012 U/ml | 0.0 U/ml | 0.047 ± 0.025 U/ml | 0.100 ± 0.021 U/ml | 0.084 ± 0.034 U/ml | 0.022 ± 0.017 U/ml | 0.156 ± 0.046 U/ml | 0.112 ± 0.036 U/ml | 0.084 ± 0.018 U/ml | 0.090 ± 0.019 U/ml | 0.199 ± 0.039 U/ml | effect in the anti-Factor Xa assay for UFH ([1]; in both citrate and plasma): minimal effects; Lovenox ® Neutralized [2, 4]: 0 U/ml; Lovenox ® Neutralized [2, 5]: 0.011 U/ml; Lovenox ® Neutralized [2, 6]: 0.055 U/ml; Lovenox ® Neutralized [2, 7]: 0.035 U/ml; Lovenox ® Neutralized [2, 8]: 0.005 U/ml; Lovenox ® Neutralized [2, 9]: 0 U/ml; Lovenox ® Neutralized [2, 10]: 0.009 U/ml; Lovenox ® Neutralized [2, 11]: 0.062 U/ml; Lovenox ® Neutralized [2, 12]: 0.007 + U/ml; Kd [3]: 8327 ± 60 nM
2 | ARKKAAKAARKKAAKAARKKAAKAVLVLVLVL [(ARKKAAKA)3VLVLVLVL] | 0.258 ± 0.153 U/ml | 0.247 ± 0.034 U/ml | 0.116 ± 0.032 U/ml | 0.072 ± 0.042 U/ml | 0.580 ± 0.067 U/ml | 0.597 ± 0.046 U/ml | 0.582 ± 0.035 U/ml | 0.651 ± 0.084 U/ml | 0.562 ± 0.050 U/ml | 0.586 ± 0.053 U/ml | 0.554 ± 0.049 U/ml | 0.505 ± 0.049 U/ml | 0.535 ± 0.054 U/ml | 0.444 ± 0.019 U/ml | 0.539 ± 0.010 U/ml | 0.528 ± 0.039 U/ml | 0.490 ± 0.049 U/ml | 0.279 ± 0.038 U/ml | 0.460 ± 0.057 U/ml | 0.510 ± 0.117 U/ml | effectiveness in neutralizing UFH [1]: most effective peptide; effectiveness in neutralizing Lovenox in blood of patients [2]: most consistently effective; Lovenox ® Neutralized [2, 4]: 0.213 U/ml; Lovenox ® Neutralized [2, 5]: 0.252 U/ml; Lovenox ® Neutralized [2, 6]: 0.302 U/ml; Lovenox ® Neutralized [2, 7]: 0.439 U/ml; Lovenox ® Neutralized [2, 8]: 0.265 U/ml; Lovenox ® Neutralized [2, 9]: 0.268 U/ml; Lovenox ® Neutralized [2, 10]: 0.478 U/ml; Lovenox ® Neutralized [2, 11]: 0.436 U/ml; Lovenox ® Neutralized [2, 12]: 0.398 U/ml; Kd [3]: 57 ± 23 nM
